Source: patent US11827663B2, “Use of UAP inhibitors to inhibit flux through the hexosamine biosynthetic pathway” (The Johns Hopkins University, priority 2014, dated 2023)

Tested on: YAP/TAZ
Assay: Western blot of YAP/TAZ
Type: cell-based
Description: FIGS. 10A and 10B show the western blot results from primary glioblastoma cell lines 612 (FIG. 10A) (these cells were a kind gift of Dr. Quinones-Hinojosa (School of Medicine, Johns Hopkins University), who obtained the cells from cancer patients) and GS1049 (FIG. 10B) that were incubated for 48 h with Ac4Glc2Bz at the indicated concentrations. Each cell line was probed for the proteins Yes Associated Protein (YAP), transcriptional coactivator with PDZ-binding motif (TAZ), phosphorylated Yes Associated Protein (p-YAP), and Glyceraldehyde 3-phosphate dehydrogenase (GAPDH control). […] YAP/TAZ are two key mediators that act to […] the Hippo pathway, which helps to promote oncogenesis, metastasis, and cancer cell survival in circulation. Until now, there were no known small molecule pharmacological agents capable of decreasing YAP/TAZ expression. These studies helped illustrate the extraordinarily powerful potential of UAP1/2 inhibitors as truly disease modifying candidates, especially in cancer.
In addition, in FIG. 22B, YAP western blot results from Ac4Glc2Bz cells were obtained where shRNA knockdown of UAP1 was performed using lentiviral methods in PANC-1 cells (n=3). Similar to above, UAP1 in PANC-1 cells was knocked down using lentiviral vectors followed by 1 week selection using puromycin. […]

With `CC(=O)OCC1OC(OC(C)=O)[C@@H](NC(=O)c2ccccc2)[C@@H](OC(C)=O)[C@@H]1OC(C)=O` (some centres unmarked) [Ac4Glc2Bz] the “protein expression of YAP/GAPDH” value (as described in Example 5) was “reduce protein expression of YAP/GAPDH in a dose-dependent manner” and the “protein expression of YAP/TAZ” value (primary glioblastoma cell lines 612 and GS1049, 48 h) was “virtually abolished”.
